Data set [1] concerns the target T1, NUDT7 (Homo sapiens, UniProt P0C024).
T1 construct: residues 14-235, E. coli, pNIC28-Bsa4, N-terminal His6 tag removed by TEV, construct 26672 Da
Further details: Intact protein LC/MS covalent labelling, fragments in pools of five, 200 uM each, 4 °C. Particulars: 24 h, 4 °C, pool of five; 200 µM; covalent.

Data set [2] concerns the target T2, OTUB2 (OTUB2A) (Homo sapiens, UniProt Q96DC9).
T2 construct: full length residues 1-234, E. coli BL21(DE3)-R3, His tag removed by TEV, construct 27312 Da
T2 sequence (Q96DC9 1-234): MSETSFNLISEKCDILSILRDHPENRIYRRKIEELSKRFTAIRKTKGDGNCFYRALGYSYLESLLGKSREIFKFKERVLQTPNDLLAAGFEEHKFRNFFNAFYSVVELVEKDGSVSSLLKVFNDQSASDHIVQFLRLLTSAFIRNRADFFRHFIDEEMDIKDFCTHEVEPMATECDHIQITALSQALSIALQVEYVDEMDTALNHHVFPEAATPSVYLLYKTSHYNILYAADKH
Further details: Intact protein LC/MS covalent labelling, fragments in pools of five, 200 uM each, 4 °C. Particulars: 24 h, 4 °C, pool of five; 200 µM; covalent.

The target of data set [3] is T3, PCAF (Homo sapiens, UniProt Q92831).
T3 construct: gene KAT2B
Also on record: Intact protein LC/MS covalent labelling, fragments in pools of five, 200 uM each, 4 °C. Particulars: 24 h, 4 °C, pool of five; 200 µM; covalent.

Data set [4] deals with T4, BSA (Bos taurus, UniProt P02769).
T4 construct: gene ALB
Further details: Intact protein LC/MS covalent labelling, fragments in pools of five, 200 uM each, 4 °C. Conditions: 24 h, 4 °C, pool of five; 200 µM; covalent.

Data set [5] deals with T5, NNMT (hNNMT) (Homo sapiens, UniProt P40261).
T5 construct: wild type, N-terminal His6 tag kept (no cleavage described), E. coli, construct 31248 Da
T5 sequence (P40261 1-264): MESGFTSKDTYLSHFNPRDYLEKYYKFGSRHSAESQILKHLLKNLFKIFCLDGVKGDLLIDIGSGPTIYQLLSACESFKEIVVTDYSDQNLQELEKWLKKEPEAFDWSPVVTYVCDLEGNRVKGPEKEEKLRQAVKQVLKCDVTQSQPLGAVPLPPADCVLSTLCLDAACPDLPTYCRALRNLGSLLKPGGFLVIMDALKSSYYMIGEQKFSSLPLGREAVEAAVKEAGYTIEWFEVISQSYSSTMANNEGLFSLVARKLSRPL
Also on record: Intact protein LC/MS covalent labelling, fragments in pools of five, 200 uM each, 4 °C. Conditions: 24 h, 4 °C, pool of five; 200 µM; covalent.

A short description of data set [6]: in vitro. Also on record: species or system CCD841, HEK293. Particulars: human, hb2 cells, read-out: HB-2 Cells Viability (%).
The nature of data set [7]: in vitro. Further details: species or system HB2, CCD841. Conditions: human, hek293 cells.
A short description of data set [8]: in vitro. Further details: species or system HB2, HEK293. Conditions: human, ccd841 cells.

Like-named read-outs stand apart in the source and are kept apart here.

Usually viability stands for a read-out of living cells in per cent, often relative to untreated cells.

T4 sequence (P02769 whole entry): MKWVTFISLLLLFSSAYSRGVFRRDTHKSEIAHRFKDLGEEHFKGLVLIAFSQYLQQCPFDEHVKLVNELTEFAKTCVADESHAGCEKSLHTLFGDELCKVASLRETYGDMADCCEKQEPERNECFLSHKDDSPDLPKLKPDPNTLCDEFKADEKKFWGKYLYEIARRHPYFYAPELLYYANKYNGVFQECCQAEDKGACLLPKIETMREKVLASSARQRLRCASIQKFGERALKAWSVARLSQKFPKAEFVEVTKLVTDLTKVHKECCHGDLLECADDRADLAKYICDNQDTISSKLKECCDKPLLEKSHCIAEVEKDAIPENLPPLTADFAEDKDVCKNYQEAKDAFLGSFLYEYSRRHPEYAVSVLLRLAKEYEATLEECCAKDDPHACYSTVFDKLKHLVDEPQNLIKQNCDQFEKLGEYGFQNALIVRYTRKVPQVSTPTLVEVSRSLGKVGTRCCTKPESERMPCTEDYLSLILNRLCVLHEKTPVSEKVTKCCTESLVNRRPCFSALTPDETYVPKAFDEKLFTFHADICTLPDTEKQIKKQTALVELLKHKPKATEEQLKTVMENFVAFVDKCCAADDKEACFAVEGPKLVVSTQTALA
T1 sequence (P0C024 14-235): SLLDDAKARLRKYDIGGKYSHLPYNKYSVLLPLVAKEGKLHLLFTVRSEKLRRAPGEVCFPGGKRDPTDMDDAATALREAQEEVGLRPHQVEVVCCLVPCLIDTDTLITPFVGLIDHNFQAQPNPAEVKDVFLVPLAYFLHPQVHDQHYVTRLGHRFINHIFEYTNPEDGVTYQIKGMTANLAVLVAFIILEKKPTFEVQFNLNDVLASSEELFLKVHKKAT
T3 sequence (Q92831 whole entry): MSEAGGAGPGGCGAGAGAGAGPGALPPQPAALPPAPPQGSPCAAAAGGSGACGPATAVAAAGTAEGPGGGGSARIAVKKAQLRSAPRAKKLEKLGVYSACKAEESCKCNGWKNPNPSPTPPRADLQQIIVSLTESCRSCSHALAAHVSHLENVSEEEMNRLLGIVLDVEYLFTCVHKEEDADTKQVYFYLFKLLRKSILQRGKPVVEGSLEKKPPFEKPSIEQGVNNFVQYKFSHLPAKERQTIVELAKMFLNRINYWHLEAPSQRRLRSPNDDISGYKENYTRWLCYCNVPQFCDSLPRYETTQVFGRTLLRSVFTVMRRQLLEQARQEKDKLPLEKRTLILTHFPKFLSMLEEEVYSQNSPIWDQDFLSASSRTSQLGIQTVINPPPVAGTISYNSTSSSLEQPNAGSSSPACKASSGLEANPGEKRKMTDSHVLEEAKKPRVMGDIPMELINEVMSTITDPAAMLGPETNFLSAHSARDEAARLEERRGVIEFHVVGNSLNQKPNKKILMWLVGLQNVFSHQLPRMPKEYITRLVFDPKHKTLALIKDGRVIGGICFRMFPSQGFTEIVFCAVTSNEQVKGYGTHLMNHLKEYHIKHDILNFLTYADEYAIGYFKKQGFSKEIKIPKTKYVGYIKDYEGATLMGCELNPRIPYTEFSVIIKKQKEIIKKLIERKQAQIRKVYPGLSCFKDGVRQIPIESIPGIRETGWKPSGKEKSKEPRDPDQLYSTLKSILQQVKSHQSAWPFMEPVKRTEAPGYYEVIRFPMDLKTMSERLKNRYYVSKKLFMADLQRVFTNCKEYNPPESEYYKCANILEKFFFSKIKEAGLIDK

In data set [1], `O=C(CCl)NNC(=O)c1ccc([N+](=O)[O-])cc1` [PCM-0102885] returned an NUDT7 of 0. Also, the OTUB2 in data set [2] was found to be 0.21. Besides, the PCAF in data set [3] turned out to be 0. The same molecule displayed a BSA in data set [4] of 0. The molecule also yielded an NNMT in data set [5] of 0. For the same molecule, the viability at 48 h, 10 µM worked out at 91% in data set [6], 92.9% in data set [7] and 83.3% in data set [8].
In data set [1], `C=CC(=O)N1CCN(C2CCCN(C3CCOCC3)C2=O)CC1` (stereo not shown) [PCM-0102886] displayed an NUDT7 of 0. This molecule also gave an OTUB2 in data set [2] of 0. In data set [3], the PCAF stood at 0. Besides, in data set [4], the BSA is given as 0. The NNMT in data set [5] was 0. For the same molecule, the viability at 48 h, 10 µM stood at 106% in data set [6], 104% in data set [7] and 105% in data set [8].
In data set [1], `N#Cc1ccc(C(=O)NNC(=O)CCl)cc1` [PCM-0102892] displayed an NUDT7 of 0. In data set [2], this molecule yielded an OTUB2 of 0.14. In addition, the PCAF in data set [3] turned out to be 0. In data set [4], this molecule showed a BSA of 0. Further, the NNMT in data set [5] was found to be 0. The viability at 48 h, 10 µM in data set [6] was 86.2%; in data set [7], 103%; in data set [8] it was 85.9%.
Take `O=C(CCl)Nc1cccc(Cl)c1N1CCOCC1` [PCM-0102893]: the NUDT7 in data set [1] came to 0.14. For the same molecule, the OTUB2 in data set [2] was 0. This molecule also yielded a PCAF in data set [3] of 0. Also, in data set [4], the BSA was 0. The molecule further had an NNMT in data set [5] of 0.62. Also, the viability at 48 h, 10 µM in data set [6] was 51.2%; in data set [7], 26.9%; in data set [8], 78%.
`CN(Cc1ccc(Cl)s1)C(=O)CCl` [PCM-0102898] had an NUDT7 in data set [1] of 0.29. This molecule also had an OTUB2 in data set [2] of 0. In data set [3], this molecule displayed a PCAF of 0. The BSA in data set [4] is 0. Further, in data set [5], the NNMT is recorded as 0.47. Besides, the viability at 48 h, 10 µM in data set [6] was 11%; in data set [7], 7.8%; in data set [8], 46.5%.
In data set [1], `O=C(CCl)NC(=O)Cc1ccccc1` [PCM-0102902] returned an NUDT7 of 0. The same molecule had an OTUB2 in data set [2] of 0. In data set [3], the PCAF is recorded as 0. In addition, the BSA in data set [4] is reported as 0. Also, in data set [5], the NNMT was 0. The viability at 48 h, 10 µM was found to be 104% in data set [6], 116% in data set [7] and 117% in data set [8].
`NS(=O)(=O)c1ccccc1NC(=O)CCl` [PCM-0102903] returned an NUDT7 in data set [1] of 0.29. For the same molecule, the OTUB2 in data set [2] worked out at 0.14. This molecule also yielded a PCAF in data set [3] of 0. The BSA in data set [4] is recorded as 0. The molecule also registered an NNMT in data set [5] of 0. Also, the results for the viability at 48 h, 10 µM in data set [6], in data set [7] and in data set [8] were 65.4%, 69.7% and 55.2%, respectively.
In data set [1], `COCC(=O)NC(=O)CCl` [PCM-0102904] displayed an NUDT7 of 0. This molecule also yielded an OTUB2 in data set [2] of 0. This molecule came in with a PCAF in data set [3] of 0. In data set [4], the BSA stood at 0. In data set [5], this molecule came in with an NNMT of 0. For the same molecule, the viability at 48 h, 10 µM was found to be 101% in data set [6], 105% in data set [7] and 116% in data set [8].
As to `Cl.O=C(CCl)N1CCN(c2ccc(F)cc2)CC1` [PCM-0102905], the NUDT7 in data set [1] is 0.1. For the same molecule, the OTUB2 in data set [2] was 0.07. In addition, the PCAF in data set [3] is listed as 0. Further, the BSA in data set [4] worked out at 0. In addition, the NNMT in data set [5] was 0.2. Besides, the figures for the viability at 48 h, 10 µM in data set [6], in data set [7] and in data set [8] were 24.7%, 56.8% and 77%, respectively.
Consider `C=CC(=O)N1CCCC(Cc2nnc3ccccn23)C1` (stereo not shown) [PCM-0102909], for which, in data set [1], the NUDT7 was found to be 0. The molecule also registered an OTUB2 in data set [2] of 0. The PCAF in data set [3] is reported as 0. In addition, in data set [4], the BSA is given as 0. In data set [5], this molecule gave an NNMT of 0. Moreover, the viability at 48 h, 10 µM is 101% in data set [6], 108% in data set [7] and 87.9% in data set [8].
The molecule `O=C(CCl)NC(=O)Nc1ccc2c(c1)OCCCO2` [PCM-0102910] displayed an NUDT7 in data set [1] of 0. In addition, the OTUB2 in data set [2] is reported as 0. The molecule further had a PCAF in data set [3] of 0. The BSA in data set [4] was 0. Also, the NNMT in data set [5] is 0.69. The viability at 48 h, 10 µM in data set [6] was 67.5%; in data set [7] it was 81%; in data set [8], 67.2%.
As to `COC(=O)c1cc(Cl)cc(Cl)c1NC(=O)CCl` [PCM-0102912], in data set [1], the NUDT7 worked out at 0.17. In addition, in data set [2], the OTUB2 was determined as 0. For the same molecule, the PCAF in data set [3] worked out at 0. The molecule also gave a BSA in data set [4] of 0.11. Further, the NNMT in data set [5] came to 0.11. Further, the figures for the viability at 48 h, 10 µM in data set [6], in data set [7] and in data set [8] were 97%, 106% and 90.6%, respectively.
Molecule `C=CC(=O)Nc1cc(F)ccc1C` [PCM-0102917] returned an NUDT7 in data set [1] of 0. Also, the OTUB2 in data set [2] came to 0. In data set [3], the PCAF was determined as 0. Besides, the BSA in data set [4] was 0. In addition, the NNMT in data set [5] is 0. Further, the viability at 48 h, 10 µM in data set [6] is 103%; in data set [7], 76.3%; in data set [8] it was 106%.
Consider `CC(=O)c1oc2ccccc2c1NC(=O)CCl` [PCM-0102918], for which, in data set [1], the NUDT7 turned out to be 0.39. The molecule further yielded an OTUB2 in data set [2] of 0. For the same molecule, the PCAF in data set [3] was 0. This molecule also gave a BSA in data set [4] of 0. This molecule returned an NNMT in data set [5] of 0.56. Further, the viability at 48 h, 10 µM in data set [6] came to 42.4%; in data set [7], 36.8%; in data set [8], 65.3%.
In the case of `C=CC(=O)N1CCC(Oc2cnc3ccccc3n2)CC1` [PCM-0102925], the NUDT7 in data set [1] was 0. This molecule also came in with an OTUB2 in data set [2] of 0. The molecule further returned a PCAF in data set [3] of 0. This molecule showed a BSA in data set [4] of 0. Also, the NNMT in data set [5] is reported as 0. In addition, the viability at 48 h, 10 µM in data set [6] came to 107%; in data set [7] it was 86.8%; in data set [8] it was 102%.
`COc1ccc(C2=CCN(C(=O)CCl)CC2)cc1` [PCM-0102929] returned an NUDT7 in data set [1] of 0.45. Further, in data set [2], the OTUB2 is recorded as 0. The molecule also had a PCAF in data set [3] of 0. This molecule also registered a BSA in data set [4] of 0. In data set [5], the NNMT amounted to 0.22. The viability at 48 h, 10 µM in data set [6] came to 59.4%; in data set [7] it was 71%; in data set [8], 90.4%.
In data set [1], `O=C(CCl)NC1CCN(C(=O)C2CCCCC2)CC1` [PCM-0102931] gave an NUDT7 of 0. In addition, in data set [2], the OTUB2 amounted to 0.09. The PCAF in data set [3] is given as 0. This molecule also registered a BSA in data set [4] of 0. In data set [5], this molecule gave an NNMT of 0. For the same molecule, the viability at 48 h, 10 µM stood at 82.9% in data set [6], 118% in data set [7] and 78.6% in data set [8].
In data set [1], `CC(=O)N1CCC(NC(=O)CCl)CC1` [PCM-0102932] displayed an NUDT7 of 0. In data set [2], this molecule gave an OTUB2 of 0.07. In addition, the PCAF in data set [3] is recorded as 0. For the same molecule, in data set [4], the BSA was determined as 0. Moreover, the NNMT in data set [5] was 0. The viability at 48 h, 10 µM in data set [6] came to 95.1%; in data set [7], 88%; in data set [8], 85.9%.
In data set [1], `N#Cc1cccc(CNC(=O)CCl)c1` [PCM-0102936] showed an NUDT7 of 0. This molecule also registered an OTUB2 in data set [2] of 0.32. Further, the PCAF in data set [3] is recorded as 0. The molecule also came in with a BSA in data set [4] of 0. Besides, the NNMT in data set [5] is listed as 0. Besides, the viability at 48 h, 10 µM in data set [6] turned out to be 97.1%; in data set [7] it was 83.1%; in data set [8], 94.9%.
In data set [1], `CN(Cc1ccc(F)cc1)C(=O)CCl` [PCM-0102939] returned an NUDT7 of 0. This molecule had an OTUB2 in data set [2] of 0.1. Besides, the PCAF in data set [3] is listed as 0. In data set [4], this molecule registered a BSA of 0. This molecule yielded an NNMT in data set [5] of 0. Further, the figures for the viability at 48 h, 10 µM in data set [6], in data set [7] and in data set [8] were 34.8%, 42.7% and 69.2%, respectively.

Values taken from PMC6556873, “Rapid Covalent-Probe Discovery by Electrophile-Fragment Screening” (Journal of the American Chemical Society, 2019).
